Here are results for five compounds from patent US12421251B2, “Cystic fibrosis transmembrane conductance regulator modulating agents” (VERTEX PHARMACEUTICALS INCORPORATED, priority 2019, dated 2025).

In the experiment the target is CFTR (Homo sapiens, UniProt P13569). The experiment in a line: Membrane potential dye assay (FLIPR Tetra) of CFTR-mediated chloride transport in enteroid cells. It is filed as cell-based. The conditions noted are these: human intestinal epithelial enteroid cells, 18-24 h incubation with test compound, acute 10 μM forskolin and 300 nM Compound III; for EC50: CFTR-mediated chloride transport; for Max. Activity: chloride transport as % of triple combination positive control (% Activity). The protocol:
Base medium (ADF+++) consisted of Advanced DMEM/Ham's F12, 2 mM Glutamax, 10 mM HEPES, 1 μg/ml penicillin/streptomycin.
Intestinal enteroid maintenance medium (IEMM) consisted of ADF+++, 1×B27 supplement, 1×N2 supplement, 1.25 mM N-acetyl cysteine, 10 mM Nicotinamide, 50 ng/mL hEGF, 10 nM Gastrin, 1 μg/mL hR-spondin-1, 100 ng/mL hNoggin, TGF-b type 1 inhibitor A-83-01, 100 μg/mL Primocin, 10 μM P38 MAPK inhibitor SB202190.
Bath 1 Buffer consisted of 1 mM MgCl2, 160 mM NaCl, 4.5 mM KCl, 10 mM HEPES, 10 mM Glucose, 2 mM CaCl2.
Chloride Free Buffer consisted of 1 mM Magnesium Gluconate, 2 mM Calcium Gluconate, 4.5 mM Potassium Gluconate, 160 mM Sodium Gluconate, 10 mM HEPES, 10 mM Glucose.
Bath1 Dye Solution consisted of Bath 1 Buffer, 0.04% Pluronic F127, 20 μM Methyl Oxonol, 30 μM CaCCinh-A01, 30 μM Chicago Sky Blue.
Chloride Free Dye Solution consisted of Chloride Free Buffer, 0.04% Pluronic F127, 20 μM Methyl Oxonol, 30 μM CaCCinh-A01, 30 μM Chicago Sky Blue.
Chloride Free Dye Stimulation Solution consisted of Chloride Free Dye Solution, 10 μM forskolin, 100 μM IBMX, and 300 nM Compound III.
Human intestinal epithelial enteroid cells were obtained from the Hubrecht Institute for Developmental Biology and Stem Cell Research, Utrecht, The Netherlands and expanded in T-Flasks as previously described (Dekkers J F, Wiegerinck C L, de Jonge H R, Bronsveld I, Janssens H M, de Winter-de Groot K M, Brandsma A M, de Jong N W M, Bijvelds M J C, Scholte B J, Nieuwenhuis E E S, van den Brink S, Clevers H, van der Ent C K, Middendorp S and M Beekman J M. A functional CFTR assay using primary cystic fibrosis intestinal organoids. Nat. Med. 2013 July; 19(7):939-45.
Enteroid Cell Harvesting and Seeding
Cells were recovered in cell recovery solution, collected by centrifugation at 650 rpm for 5 min at 4° C., resuspended in TryPLE and incubated for 5 min at 37° C. Cells were then collected by centrifugation at 650 rpm for 5 min at 4° C. and resuspended in IEMM containing 10 μM ROCK inhibitor (RI). The cell suspension was passed through a 40 μm cell strainer and resuspended at 1×10^6 cells/mL in IEMM containing 10 μM RI. Cells were seeded at 5000 cells/well into multi-well plates and incubated for overnight at 37° C., 95% humidity and 5% CO2 prior to assay.
Membrane Potential Dye Assay
Enteroid cells were incubated with test compound in IEMM for 18-24 h at 37° C., 95% humidity and 5% CO2. Following compound incubations, a membrane potential dye assay was employed using a FLIPR Tetra to directly measure the potency and efficacy of the test compound on CFTR-mediated chloride transport following acute addition of 10 μM forskolin and 300 nM N-[2,4-bis(1,1-dimethylethyl)-5-hydroxyphenyl]-1,4-dihydro-4-oxoquinoline-3-carboxamide. Briefly, cells were washed 5 times in Bath 1 Buffer. Bath 1 Dye Solution was added and the cells were incubated for 25 min at ambient temperature. Following dye incubation, cells were washed 3 times in Chloride Free Dye Solution. Chloride transport was initiated by addition of Chloride Free Dye Stimulation Solution and the fluorescence signal was read for 15 min. The CFTR-mediated chloride transport for each condition was determined from the AUC of the fluorescence response to acute forskolin and 300 nM N-[2,4-bis(1,1-dimethylethyl)-5-hydroxyphenyl]-1,4-dihydro-4-oxoquinoline-3-carboxamide stimulation. Chloride transport was then expressed as a percentage of the chloride transport following treatment with 1 μM (14S)-8-[3-(2-{Dispiro[2.0.2.1]heptan-7-yl}ethoxy)-1H-pyrazol-1-yl]-12,12-dimethyl-2λ^6-thia-3,9,11,18,23-pentaazatetracyclo[17.3.1.111,14.05,10]-tetracosa-1(22),5,7,9,19(23),20-hexaene-2,2,4-trione, 3 μM ((R)-1-(2,2-difluorobenzo[d][1,3]dioxol-5-yl)-N-(1-(2,3-dihydroxypropyl)-6-fluoro-2-(1-hydroxy-2-methylpropan-2-yl)-1H-indol-5-yl)cyclopropanecarboxamide and 300 nM acute N-[2,4-bis(1,1-dimethylethyl)-5-hydroxyphenyl]-1,4-dihydro-4-oxoquinoline-3-carboxamide triple combination positive control (% Activity). […]

Sequence of CFTR (P13569 with tags, fused parts or gaps DEL508-508): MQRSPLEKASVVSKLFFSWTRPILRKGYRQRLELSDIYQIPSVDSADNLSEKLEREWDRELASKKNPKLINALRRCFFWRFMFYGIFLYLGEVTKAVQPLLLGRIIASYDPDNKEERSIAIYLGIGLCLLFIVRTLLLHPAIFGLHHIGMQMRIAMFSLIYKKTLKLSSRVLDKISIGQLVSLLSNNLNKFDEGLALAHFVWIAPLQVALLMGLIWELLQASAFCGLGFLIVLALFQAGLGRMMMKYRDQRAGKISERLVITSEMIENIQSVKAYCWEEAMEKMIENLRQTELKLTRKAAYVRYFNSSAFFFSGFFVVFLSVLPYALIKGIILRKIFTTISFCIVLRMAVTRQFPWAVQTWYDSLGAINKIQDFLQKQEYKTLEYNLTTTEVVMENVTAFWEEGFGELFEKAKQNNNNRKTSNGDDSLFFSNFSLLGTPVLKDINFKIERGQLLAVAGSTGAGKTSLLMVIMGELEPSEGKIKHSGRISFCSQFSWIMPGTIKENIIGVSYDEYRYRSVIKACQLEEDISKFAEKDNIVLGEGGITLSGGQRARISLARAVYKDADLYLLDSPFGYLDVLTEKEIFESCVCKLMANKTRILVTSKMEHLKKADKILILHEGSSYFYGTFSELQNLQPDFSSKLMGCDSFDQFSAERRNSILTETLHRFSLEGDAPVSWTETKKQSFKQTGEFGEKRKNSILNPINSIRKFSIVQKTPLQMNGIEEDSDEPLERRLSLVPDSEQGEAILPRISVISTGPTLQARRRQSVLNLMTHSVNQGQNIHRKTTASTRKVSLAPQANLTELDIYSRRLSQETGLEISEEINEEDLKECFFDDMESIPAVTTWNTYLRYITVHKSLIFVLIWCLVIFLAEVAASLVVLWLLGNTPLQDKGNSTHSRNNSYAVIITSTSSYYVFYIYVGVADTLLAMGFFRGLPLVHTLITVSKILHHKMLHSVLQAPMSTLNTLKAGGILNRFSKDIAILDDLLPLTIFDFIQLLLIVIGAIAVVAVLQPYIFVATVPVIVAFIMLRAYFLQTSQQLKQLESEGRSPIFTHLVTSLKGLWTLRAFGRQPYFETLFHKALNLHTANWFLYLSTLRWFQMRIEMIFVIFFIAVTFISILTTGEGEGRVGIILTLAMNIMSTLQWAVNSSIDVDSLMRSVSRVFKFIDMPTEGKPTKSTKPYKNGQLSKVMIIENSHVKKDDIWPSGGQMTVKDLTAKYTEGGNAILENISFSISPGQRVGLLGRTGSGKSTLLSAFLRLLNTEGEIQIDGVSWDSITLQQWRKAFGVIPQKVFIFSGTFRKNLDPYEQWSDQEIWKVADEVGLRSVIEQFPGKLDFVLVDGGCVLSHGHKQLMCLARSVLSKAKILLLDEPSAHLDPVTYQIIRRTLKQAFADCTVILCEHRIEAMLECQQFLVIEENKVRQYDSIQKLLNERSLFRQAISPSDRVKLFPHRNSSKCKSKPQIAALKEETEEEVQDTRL

Take `Cc1cccc(C)c1-c1cc2nc(n1)NS(=O)(=O)c1cccc(c1)C(=O)N(C1CC3(CC3)C1)[C@H](CC(C)C)CO2` [Compound I, (11R)-6-(2,6-dimethylphenyl)-11-(2-methylpropyl)-12-{spiro[2.3]hexan-5-yl}-9-oxa-2λ^6-thia-3,5,12,19-tetraazatricyclo[12.3.1.14,8]nonadeca-1(17),4(19),5,7,14(18),15-hexaene-2,2,13-trione]: the EC50 (as a rule, the concentration needed to bring the measured effect to its halfway point) was less than 1000 nM and the “Max. Activity” value was “+++ (+++ is >60%)”.
`[2H]C1([2H])C([2H])([2H])C12CC(N1C(=O)c3cccc(c3)S(=O)(=O)Nc3nc(cc(-c4c(C)cccc4C)n3)OC[C@H]1CC(C)C)C2` [Compound Ia, (11R)-6-(2,6-Dimethylphenyl)-11-(2-methylpropyl)-12-[(1,1,2,2-tetradeutero)spiro[2.3]hexan-5-yl]-9-oxa-2λ^6-thia-3,5,12,19-tetraazatricyclo[12.3.1.14,8]nonadeca-1(17),4(19),5,7,14(18),15-hexaene-2,2,13-trione]: the EC50 is less than 1000 nM and the “Max. Activity” value was “+++ (+++ is >60%)”.
As to `[2H]C1([2H])C2(CC2)C([2H])([2H])C1([2H])N1C(=O)c2cccc(c2)S(=O)(=O)Nc2nc(cc(-c3c(C)cccc3C)n2)OC[C@H]1CC(C)C` [Compound Ib, (11R)-6-(2,6-Dimethylphenyl)-11-isobutyl-2,2-dioxo-12-(4,4,5,6,6-pentadeuteriospiro[2.3]hexan-5-yl)-9-oxa-2-thia-3,5,12,19-tetrazatricyclo[12.3.1.14,8]nonadeca-1(18),4,6,8(19),14,16-hexaen-13-one], the EC50 is less than 1000 nM and the “Max. Activity” value was “+++ (+++ is >60%)”.
For `[2H]C1(N2C(=O)c3cccc(c3)S(=O)(=O)Nc3nc(cc(-c4c(C)cccc4C)n3)OC[C@H]2CC(C)C)CC2(CC2)C1` [Compound Ic, (11R)-12-(5-Deuteriospiro[2.3]hexan-5-yl)-6-(2,6-dimethylphenyl)-11-isobutyl-2,2-dioxo-9-oxa-2-thia-3,5,12,19-tetrazatricyclo[12.3.1.14,8]nonadeca-1(18),4,6,8(19),14,16-hexaen-13-one] the same measures were less than 1000 nM and “+++ (+++ is >60%)”.
On to `[2H]C([2H])([2H])c1cccc(C([2H])([2H])[2H])c1-c1cc2nc(n1)NS(=O)(=O)c1cccc(c1)C(=O)N(C1CC3(CC3)C1)[C@H](CC(C)C)CO2` [Compound Id, (11R)-6-[2,6-di(trideutero)methylphenyl]-11-(2-methylpropyl)-12-{spiro[2.3]hexan-5-yl}-9-oxa-2λ^6-thia-3,5,12,19-tetraazatricyclo[12.3.1.14,8]nonadeca-1(17),4(19),5,7,14(18),15-hexaene-2,2,13-trione], for which the 50% effective concentration (EC50) was less than 1000 nM and the “Max. Activity” value is listed as “+++ (+++ is >60%)”.
